What was measured:
Test in all cases: KINOMEscan competition binding
Settings in all cases: compound 1.0 µM
[1] = molecular target: TYK2 JH1 catalytic (human) (UniProt P29597)
[2] = molecular target: CSNK1E (human) (UniProt P49674)
[3] = molecular target: FLT1 (human) (UniProt P17948)
[4] = molecular target: FGFR1 (human) (UniProt P11362)
[5] = molecular target: MAPK11 (human) (UniProt Q15759)
[6] = molecular target: INSRR (human) (UniProt P14616)
[7] = test system: EIF2AK4 KD2 (human), Q9P2K8 [S808G]
[8] = molecular target: CAMK2G (human) (UniProt Q13555)
[9] = molecular target: WEE2 (human) (UniProt P0C1S8)
[10] = molecular target: IKBKE (human) (UniProt Q14164)
IKBKE (human), sequence (Q14164 whole entry, looked up): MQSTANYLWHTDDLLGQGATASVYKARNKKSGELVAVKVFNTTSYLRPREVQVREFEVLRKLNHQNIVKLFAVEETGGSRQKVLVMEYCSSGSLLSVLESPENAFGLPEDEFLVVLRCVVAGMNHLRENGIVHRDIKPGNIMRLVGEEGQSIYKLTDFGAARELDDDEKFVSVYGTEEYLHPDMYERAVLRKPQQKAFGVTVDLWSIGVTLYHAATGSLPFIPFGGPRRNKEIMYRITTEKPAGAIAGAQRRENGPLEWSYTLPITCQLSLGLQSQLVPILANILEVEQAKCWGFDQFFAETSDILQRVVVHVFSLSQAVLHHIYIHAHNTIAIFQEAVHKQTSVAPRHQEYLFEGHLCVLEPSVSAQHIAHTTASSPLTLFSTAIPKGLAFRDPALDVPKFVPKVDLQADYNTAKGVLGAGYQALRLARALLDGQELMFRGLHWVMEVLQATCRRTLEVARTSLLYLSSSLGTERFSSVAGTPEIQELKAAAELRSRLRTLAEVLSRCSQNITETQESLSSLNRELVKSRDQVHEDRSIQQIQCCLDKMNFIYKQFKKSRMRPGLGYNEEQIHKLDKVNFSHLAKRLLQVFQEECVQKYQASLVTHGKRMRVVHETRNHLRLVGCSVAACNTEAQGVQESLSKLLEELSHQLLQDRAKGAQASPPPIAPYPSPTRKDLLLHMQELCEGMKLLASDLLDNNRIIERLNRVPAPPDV

[11] = molecular target: AKT1 (human) (UniProt P31749)
[12] = molecular target: SRPK2 (human) (UniProt P78362)
[13] = molecular target: CDKL2 (human) (UniProt Q92772)
CDKL2 (human), sequence (Q92772 whole entry, looked up): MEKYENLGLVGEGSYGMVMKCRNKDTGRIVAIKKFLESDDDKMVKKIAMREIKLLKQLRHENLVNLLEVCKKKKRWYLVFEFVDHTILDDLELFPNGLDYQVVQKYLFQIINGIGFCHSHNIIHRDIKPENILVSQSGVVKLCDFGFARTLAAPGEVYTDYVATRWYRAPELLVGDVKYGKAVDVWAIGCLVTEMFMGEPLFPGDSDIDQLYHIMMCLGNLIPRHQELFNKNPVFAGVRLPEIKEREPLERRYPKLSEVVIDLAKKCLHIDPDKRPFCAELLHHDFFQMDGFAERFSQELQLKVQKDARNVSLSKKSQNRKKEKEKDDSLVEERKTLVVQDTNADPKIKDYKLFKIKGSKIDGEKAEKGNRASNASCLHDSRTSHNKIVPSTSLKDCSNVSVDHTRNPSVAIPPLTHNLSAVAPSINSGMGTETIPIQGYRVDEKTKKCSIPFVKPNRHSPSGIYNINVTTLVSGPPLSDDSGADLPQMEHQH

[14] = molecular target: MYLK4 (human) (UniProt Q86YV6)
MYLK4 (human), sequence (Q86YV6 whole entry, looked up): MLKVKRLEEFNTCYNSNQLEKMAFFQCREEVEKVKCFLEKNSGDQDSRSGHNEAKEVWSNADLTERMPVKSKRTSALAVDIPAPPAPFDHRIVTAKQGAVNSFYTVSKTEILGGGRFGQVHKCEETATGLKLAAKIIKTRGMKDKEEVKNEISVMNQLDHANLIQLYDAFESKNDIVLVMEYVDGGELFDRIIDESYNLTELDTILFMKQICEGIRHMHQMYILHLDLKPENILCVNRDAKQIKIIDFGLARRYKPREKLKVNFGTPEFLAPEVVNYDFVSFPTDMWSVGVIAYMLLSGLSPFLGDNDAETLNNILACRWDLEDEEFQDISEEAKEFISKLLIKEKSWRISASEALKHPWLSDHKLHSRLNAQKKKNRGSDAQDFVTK

[15] = molecular target: CDC42BPA (human) (UniProt Q5VT25)
[16] = molecular target: PTK2 (human) (UniProt Q05397)
[17] = molecular target: CAMK2D (human) (UniProt Q13557)
[18] = molecular target: MAPK12 (human) (UniProt P53778)
[19] = molecular target: CHEK1 (human) (UniProt O14757)
[20] = molecular target: HCK (human) (UniProt P08631)
[21] = molecular target: MAP2K4 (human) (UniProt P45985)
MAP2K4 (human), sequence (P45985 whole entry, looked up): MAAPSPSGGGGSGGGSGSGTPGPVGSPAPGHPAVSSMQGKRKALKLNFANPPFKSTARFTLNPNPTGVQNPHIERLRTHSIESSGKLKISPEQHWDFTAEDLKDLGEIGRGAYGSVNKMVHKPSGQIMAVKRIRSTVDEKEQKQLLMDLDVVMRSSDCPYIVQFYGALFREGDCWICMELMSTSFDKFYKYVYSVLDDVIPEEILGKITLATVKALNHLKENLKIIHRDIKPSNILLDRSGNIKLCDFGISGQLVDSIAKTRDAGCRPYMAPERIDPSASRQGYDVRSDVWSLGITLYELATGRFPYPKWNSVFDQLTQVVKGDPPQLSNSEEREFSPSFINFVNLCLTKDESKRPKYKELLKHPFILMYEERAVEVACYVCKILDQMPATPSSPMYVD

[22] = molecular target: MAPKAPK5 (human) (UniProt Q8IW41)
[23] = test system: EGFR (human), P00533 [752-759 del]
[24] = molecular target: NEK5 (human) (UniProt Q6P3R8)
[25] = molecular target: CDK3 (human) (UniProt Q00526)
[26] = molecular target: ACVR1 (human) (UniProt Q04771)
[27] = molecular target: PDGFRB (human) (UniProt P09619)
[28] = molecular target: MYLK2 (human) (UniProt Q9H1R3)
[29] = molecular target: DAPK3 (human) (UniProt O43293)
DAPK3 (human), sequence (O43293 whole entry, looked up): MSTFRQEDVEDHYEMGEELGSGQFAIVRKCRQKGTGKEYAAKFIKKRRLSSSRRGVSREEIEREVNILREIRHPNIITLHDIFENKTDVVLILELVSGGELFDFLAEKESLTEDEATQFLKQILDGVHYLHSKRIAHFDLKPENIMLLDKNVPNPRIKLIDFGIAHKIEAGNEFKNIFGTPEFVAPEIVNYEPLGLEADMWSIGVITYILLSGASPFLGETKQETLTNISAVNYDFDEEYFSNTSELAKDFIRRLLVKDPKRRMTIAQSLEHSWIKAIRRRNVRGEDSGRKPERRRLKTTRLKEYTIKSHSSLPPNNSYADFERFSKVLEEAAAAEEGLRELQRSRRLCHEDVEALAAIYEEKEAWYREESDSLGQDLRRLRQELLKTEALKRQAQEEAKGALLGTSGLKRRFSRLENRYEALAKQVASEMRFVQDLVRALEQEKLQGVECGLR

[30] = molecular target: RPS6KA1 KD2 (human) (UniProt Q15418)
[31] = molecular target: RIOK2 (human) (UniProt Q9BVS4)
[32] = molecular target: PRKAA1 (human) (UniProt Q13131)
[33] = molecular target: NTRK1 (human) (UniProt P04629)
[34] = molecular target: KDR (human) (UniProt P35968)
[35] = molecular target: MLTK (human) (UniProt Q9NYL2)
[36] = molecular target: DAPK1 (human) (UniProt P53355)
[37] = molecular target: LATS1 (human) (UniProt O95835)
[38] = molecular target: MYO3B (human) (UniProt Q8WXR4)
[39] = molecular target: DDR1 (human) (UniProt Q08345)
[40] = molecular target: STK36 (human) (UniProt Q9NRP7)

FGFR1 (human), sequence (P11362 whole entry, looked up): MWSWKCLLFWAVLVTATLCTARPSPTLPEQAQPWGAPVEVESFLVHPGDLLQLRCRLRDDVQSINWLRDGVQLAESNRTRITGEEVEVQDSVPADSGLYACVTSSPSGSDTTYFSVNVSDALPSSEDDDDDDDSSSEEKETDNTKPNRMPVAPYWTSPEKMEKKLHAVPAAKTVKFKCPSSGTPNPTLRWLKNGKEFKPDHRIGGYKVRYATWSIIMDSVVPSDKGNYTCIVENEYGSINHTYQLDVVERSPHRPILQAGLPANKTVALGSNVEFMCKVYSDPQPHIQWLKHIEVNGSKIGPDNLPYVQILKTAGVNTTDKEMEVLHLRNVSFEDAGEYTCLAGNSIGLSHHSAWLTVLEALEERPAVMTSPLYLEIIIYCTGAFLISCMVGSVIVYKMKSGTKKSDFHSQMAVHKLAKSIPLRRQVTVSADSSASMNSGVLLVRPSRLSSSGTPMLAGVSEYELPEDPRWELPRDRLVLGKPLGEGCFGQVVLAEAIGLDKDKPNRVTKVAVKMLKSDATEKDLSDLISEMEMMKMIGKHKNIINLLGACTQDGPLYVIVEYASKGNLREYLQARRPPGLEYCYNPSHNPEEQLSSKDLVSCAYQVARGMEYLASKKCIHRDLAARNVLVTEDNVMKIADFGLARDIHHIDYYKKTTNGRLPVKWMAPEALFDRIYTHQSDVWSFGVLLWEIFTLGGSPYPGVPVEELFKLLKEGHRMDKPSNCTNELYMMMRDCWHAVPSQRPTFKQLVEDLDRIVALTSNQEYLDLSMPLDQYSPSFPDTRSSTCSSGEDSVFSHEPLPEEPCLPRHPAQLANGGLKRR
FLT1 (human), sequence (P17948 whole entry, looked up): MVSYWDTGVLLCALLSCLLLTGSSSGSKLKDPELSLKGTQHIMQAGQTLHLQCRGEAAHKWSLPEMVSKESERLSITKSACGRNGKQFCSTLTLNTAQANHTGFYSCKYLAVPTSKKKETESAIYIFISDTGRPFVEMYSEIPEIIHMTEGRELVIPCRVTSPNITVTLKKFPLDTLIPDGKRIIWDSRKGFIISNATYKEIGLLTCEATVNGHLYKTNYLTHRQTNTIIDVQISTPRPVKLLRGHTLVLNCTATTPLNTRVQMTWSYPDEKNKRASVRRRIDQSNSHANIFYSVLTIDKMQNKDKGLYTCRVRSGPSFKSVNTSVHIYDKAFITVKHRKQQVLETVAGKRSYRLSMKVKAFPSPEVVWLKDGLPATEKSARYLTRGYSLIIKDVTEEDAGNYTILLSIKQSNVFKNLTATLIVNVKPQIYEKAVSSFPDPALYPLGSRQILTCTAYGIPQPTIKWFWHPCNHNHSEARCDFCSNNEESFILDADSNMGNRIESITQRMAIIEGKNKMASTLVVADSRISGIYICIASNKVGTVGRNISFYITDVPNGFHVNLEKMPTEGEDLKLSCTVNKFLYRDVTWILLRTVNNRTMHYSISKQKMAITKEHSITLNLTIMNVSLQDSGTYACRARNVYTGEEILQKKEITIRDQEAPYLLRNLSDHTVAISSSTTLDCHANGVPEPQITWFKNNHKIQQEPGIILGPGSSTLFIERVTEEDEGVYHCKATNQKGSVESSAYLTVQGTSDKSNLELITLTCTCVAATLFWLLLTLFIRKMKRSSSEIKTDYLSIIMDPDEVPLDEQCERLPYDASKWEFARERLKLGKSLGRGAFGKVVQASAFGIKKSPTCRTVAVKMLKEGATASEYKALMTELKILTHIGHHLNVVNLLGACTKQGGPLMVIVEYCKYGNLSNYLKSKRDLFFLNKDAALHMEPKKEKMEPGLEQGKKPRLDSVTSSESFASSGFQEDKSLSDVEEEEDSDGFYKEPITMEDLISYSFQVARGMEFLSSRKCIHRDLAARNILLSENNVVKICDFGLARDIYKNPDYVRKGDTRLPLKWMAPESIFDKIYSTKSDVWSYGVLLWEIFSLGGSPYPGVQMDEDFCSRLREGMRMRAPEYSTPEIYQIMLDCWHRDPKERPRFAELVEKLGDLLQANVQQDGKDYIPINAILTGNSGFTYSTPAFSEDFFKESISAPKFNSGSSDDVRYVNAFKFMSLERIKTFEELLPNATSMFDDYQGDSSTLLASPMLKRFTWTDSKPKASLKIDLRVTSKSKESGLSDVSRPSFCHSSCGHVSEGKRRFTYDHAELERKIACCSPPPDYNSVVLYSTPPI
CSNK1E (human), sequence (P49674 whole entry, looked up): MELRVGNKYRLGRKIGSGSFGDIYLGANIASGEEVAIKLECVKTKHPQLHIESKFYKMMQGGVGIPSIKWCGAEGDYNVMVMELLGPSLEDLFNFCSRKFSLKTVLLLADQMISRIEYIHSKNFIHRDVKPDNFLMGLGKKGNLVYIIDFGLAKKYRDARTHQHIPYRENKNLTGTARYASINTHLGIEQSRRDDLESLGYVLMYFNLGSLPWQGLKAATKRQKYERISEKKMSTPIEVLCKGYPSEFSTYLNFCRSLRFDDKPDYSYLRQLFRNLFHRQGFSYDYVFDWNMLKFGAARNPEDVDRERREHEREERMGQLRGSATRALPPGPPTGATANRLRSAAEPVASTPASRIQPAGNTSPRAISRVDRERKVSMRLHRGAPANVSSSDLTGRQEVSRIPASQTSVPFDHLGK

Nc1cc(C(F)(F)F)c(-c2cc(N3CCOCC3)nc(N3CCOCC3)n2)cn1
inhibition of binding [1]: 0% | inhibition of binding [2]: 7% | inhibition of binding [3]: 0% | inhibition of binding [4]: 0% | inhibition of binding [5]: 0% | inhibition of binding [6]: 0% | inhibition of binding [7]: 35% | inhibition of binding [8]: 0% | inhibition of binding [9]: 0% | inhibition of binding [10]: 0% | inhibition of binding [11]: 0% | inhibition of binding [12]: 27% | inhibition of binding [13]: 0% | inhibition of binding [14]: 0% | inhibition of binding [15]: 0% | inhibition of binding [16]: 21% | inhibition of binding [17]: 0% | inhibition of binding [18]: 17% | inhibition of binding [19]: 1% | inhibition of binding [20]: 0% | inhibition of binding [21]: 15% | inhibition of binding [22]: 0% | inhibition of binding [23]: 0% | inhibition of binding [24]: 0% | inhibition of binding [25]: 0% | inhibition of binding [26]: 0% | inhibition of binding [27]: 0% | inhibition of binding [28]: 5% | inhibition of binding [29]: 10% | inhibition of binding [30]: 23% | inhibition of binding [31]: 0% | inhibition of binding [32]: 3% | inhibition of binding [33]: 4% | inhibition of binding [34]: 0% | inhibition of binding [35]: 0% | inhibition of binding [36]: 2% | inhibition of binding [37]: 4% | inhibition of binding [38]: 1% | inhibition of binding [39]: 7% | inhibition of binding [40]: 0%
